Experimental data taken from patent publication US8962825B2, “Hydroxamates as inhibitors of histone deacetylase” (GlaxoSmithKline Intellectual Property Development Limited, priority 2006, dated 2015).

Experiments:
[1] = tested on: HUT cells; assay: HUT cell inhibition assay (WST-1 cell viability); format: cell-based; details: 72-96 h
Experimental: (§1) Cancer cell lines (U937 and HUT) growing in log phase were harvested and seeded at 1000-2000 cells/well (100 μl final volume) into 96-well tissue culture plates. Following 24 h of growth cells were treated with Compound. Plates were then re-incubated for a further 72-96 h before a WST-1 cell viability assay was conducted according to the suppliers (Roche Applied Science) instructions.
(§2) Data were expressed as a percentage inhibition of the control, measured in the absence of inhibitor, as follows: % inhibition=100−[(S^i/S^o)×100] where S^i is the signal in the presence of inhibitor and S^o is the signal in the presence of DMSO.
(§3) Dose response curves were generated from 8 concentrations (top final concentration 10 μM, with 3-fold dilutions), using 6 replicates.
(§4) IC50 values were determined by non-linear regression analysis, after fitting the results to the equation for sigmoidal dose response with variable slope (% activity against log concentration of Compound), using Graphpad Prism software.

[2] = tested on: U937 cells; assay: U937 cell inhibition assay (WST-1 cell viability); format: cell-based
Experimental: as §1, §2, §3, §4

[3] = target: T1, histone deacetylase activity (HeLa nuclear extract); assay: Histone deacetylase activity (Biomol Fluor de Lys HDAC fluorescent activity assay); format: biochemical; details: Fluor de Lys substrate
T1 construct: Histone deacetylase activity from crude nuclear extract derived from HeLa cells was used for screening
Experimental: The ability of compounds to inhibit histone deacetylase activities was measured using the commercially available HDAC fluorescent activity assay from Biomol. In brief, the Fluor de Lys™ substrate, a lysine with an epsilon-amino acetylation, is incubated with the source of histone deacetylase activity (HeLa nuclear extract) in the presence or absence of inhibitor. Deacetylation of the substrate sensitises the substrate to Fluor de Lys™ developer, which generates a fluorophore. Thus, incubation of the substrate with a source of HDAC activity results in an increase in signal that is diminished in the presence of an HDAC inhibitor.
Data are expressed as a percentage of the control, measured in the absence of inhibitor, with background signal being subtracted from all samples, as follows: % activity=[(S^i−B)/(S^o−B)]×100 where S^i is the signal in the presence of substrate, enzyme and inhibitor, S^o is the signal in the presence of substrate, enzyme and the vehicle in which the inhibitor is dissolved, and B is the background signal measured in the absence of enzyme.
(§5) IC50 values were determined by non-linear regression analysis, after fitting the results of eight data points to the equation for sigmoidal dose response with variable slope (% activity against log concentration of Compound), using Graphpad Prism software.
Histone deacetylase activity from crude nuclear extract derived from HeLa cells was used for screening. The preparation, purchased from 4C (Seneffe, Belgium), was prepared from HeLa cells harvested whilst in exponential growth phase. The nuclear extract was prepared according to the methodology described by J. D. Dignam, Nucl. Acid. Res., 1983, 11, 1475-1489, snap frozen in liquid nitrogen and stored at −80° C. The final buffer composition was 20 mM Hepes, 100 mM KCl, 0.2 mM EDTA, 0.5 mM DTT, 0.2 mM PMSF and 20% (v/v) glycerol.

[4] = tested on: HeLa cells; assay: HeLa cell inhibition assay (sulphorhodamine B cell viability); format: cell-based; details: 72 h, SRB
Experimental: HeLa cells growing in log phase were harvested and seeded at 1000 cells/well (200 μl final volume) into 96-well tissue culture plates. Following 24 h of cell growth cells were treated with Compounds (final concentration of 20 μM). Plates were then re-incubated for a further 72 h before a sulphorhodamine B (SRB) cell viability assay was conducted according to the methodology described by Skehan et al, J. Natl. Canc. Inst., 1990, 82, 1107-1112.
Data were expressed as a percentage inhibition of the control, measured in the absence of inhibitor, as follows:— % inhibition=100−[(S^i/S^o)×100] where S^i is the signal in the presence of inhibitor and S^o is the signal in the presence of DMSO.
as §5

| SMILES | IC50 ([2]; Homo sapiens, U-937, 72-96 h) | IC50 [3] | IC50 ([4]; Homo sapiens) | IC50 ([2]; 72-96 h) | IC50 [4] | IC50 [1] |
| --- | --- | --- | --- | --- | --- | --- |
| CC(C)C[C@H](NC1CCN(c2ncc(C(=O)NO)cn2)CC1)C(=O)OC1CCCC1 [Example 1, Cyclopentyl N-{1-[5-(hydroxycarbamoyl)pyrimidin-2-yl]piperidin-4-yl}-L-leucinate] | < 330 nM | 101 to 1000 nM | > 3.3 µM |  |  | 331 to 3300 nM |
| O=C(NO)c1cnc(N2CCC(CN[C@H](C(=O)OC3CCCC3)C3CCCCC3)CC2)nc1 [Example 18, Cyclopentyl (2S)-cyclohexyl[({1-[5-(hydroxycarbamoyl)pyrimidin-2-yl]piperidin-4-yl}methyl)amino]acetate] | < 330 nM | < 100 nM | 0.331 to 3.3 µM |  |  | 331 to 3300 nM |
| O=C(NO)c1cnc(N2CC3C(CN[C@H](C(=O)OC4CCCC4)C4CCCCC4)C3C2)nc1 (stereo partly drawn) [Example 14, Cyclopentyl (2S)-cyclohexyl[({3-[5-(hydroxycarbamoyl)pyrimidin-2-yl]-3-azabicyclo[3.1.0]hex-6-yl}methyl)amino]acetate] | 331 to 3300 nM | < 100 nM | 0.331 to 3.3 µM |  |  | 331 to 3300 nM |
| CC(C)C[C@H](NCc1ccc(CNC2CCN(c3ncc(C(=O)NO)cn3)CC2)cc1)C(=O)OC1CCCC1 [Example 27, Cyclopentyl N-{4-[({1-[5-(hydroxycarbamoyl)pyrimidin-2-yl]piperidin-4-yl}amino)methyl]benzyl}-L-leucinate] | < 330 nM | < 100 nM | 0.331 to 3.3 µM |  |  | < 330 nM |

The next lines start with results.

| IC50 ([2]; Homo sapiens, U-937, 72-96 h) | IC50 [3] | IC50 ([4]; Homo sapiens) | IC50 ([2]; 72-96 h) | IC50 [4] | SMILES | IC50 [1] |
| --- | --- | --- | --- | --- | --- | --- |
|  | 101 to 1000 nM |  | < 330 nM | 0.331 to 3.3 µM | O=C(NO)c1cnc(N2CCC(NCc3ccc(CN[C@H](C(=O)OC4CCCC4)c4ccccc4)cc3)CC2)nc1 [Example 31] | 331 to 3300 nM |
|  | < 100 nM |  | < 330 nM | 0.331 to 3.3 µM | O=C(NO)c1cnc(N2CCC(NCc3ccc(CN[C@H](C(=O)OC4CCCC4)c4ccccc4)cc3)CC2)nc1 [Example 33] | < 330 nM |
| < 330 nM | < 100 nM | 0.331 to 3.3 µM |  |  | O=C(NO)c1cnc(N2CCC(NCc3ccc(CN[C@H](C(=O)OC4CCCC4)c4ccccc4)cc3)CC2)nc1 [Example 29] | 331 to 3300 nM |
| 331 to 3300 nM | < 100 nM | 0.331 to 3.3 µM |  |  | O=C(NO)c1cnc(N2CC3C(CNCc4ccc(CN[C@H](C(=O)OC5CCCC5)c5ccccc5)cc4)C3C2)nc1 (stereo partly drawn) [Example 35, Cyclopentyl (2S)-[(4-{[({3-[5-(hydroxycarbamoyl)pyrimidin-2-yl]-3-azabicyclo[3.1.0]hex-6-yl}methyl)amino]methyl}benzyl)amino](phenyl)acetate] | 331 to 3300 nM |
